Measurements: patent US20240252581A1, “COMPOSITIONS AND METHODS FOR TREATING RESPIRATORY DISTRESS” (S.I.S. SHULOV INNOVATIVE SCIENCE LTD., priority 2021, published 2024)
“And” between values parts separate entries of the source, which are not always exact repeats. Equal entries are not always repeated. Square brackets hold non-standard residues; d marks the D form. Peptide text beside a SMILES is read from it. * marks the point of attachment. pGlu = O=C1CC[C@@H](C(=O)O)N1; Octanoyl = CCCCCCCC(=O)*

Tested on: B cells, T cells, eosinophils, neutrophils, macrophages/dendritic cells in BALF
Experiment: LPS-induced acute lung injury / ARDS mouse model: BALF differential cell count by FACS
Type: in vivo, BALB/c mice
Parameters: key to Macrophages / B cells / T cells / Eosinophils / Neutrophils: (+) indicates activation; (−) indicates inhibition
Details: for Macrophages & dendritic cells (%) / Neutrophils (%) / T cells (%) / B cells (%) / Eosinophils (%) / Eosinophils / Macrophages / B cells / Neutrophils / T cells: BALF
Method: In order to test the efficacy of ZEP3 sodium on lung inflammation, the lipopolysaccharide (LPS)-induced acute lung injury model was used. In particular, LPS was administered intratracheally at doses of 10 or 40 mg/kg body weight (BW) corresponding to 0.2 or 0.8 mg/mouse, respectively.
ZEP3 sodium was administered by inhalation (INH) at doses of 25 or 250 mg/kg BW (0.5 or 5 mg/mouse, respectively), or intratracheally (IT) at doses of 5 or 20 mg/kg BW (0.1 or 0.4 mg/mouse, respectively) 6 hours after LPS administration and its effect was measured 72 hours following administration in the branchial alveolar fluid (BALF) using FACS instrumentation. […]

[1] = Group 3: ZEP3Na 0.4 mg IT, no LPS, group mean
[2] = Group 3: ZEP3Na 0.4 mg IT, no LPS, individual mice
[3] = Group 4: LPS 0.8 mg + ZEP3Na 0.1 mg IT, group mean
[4] = Group 4: LPS 0.8 mg + ZEP3Na 0.1 mg IT, individual mice
[5] = Group 5: LPS 0.8 mg + ZEP3Na 0.4 mg IT, group mean
[6] = Group 5: LPS 0.8 mg + ZEP3Na 0.4 mg IT, individual mice
[7] = Group 8: LPS 0.2 mg + ZEP3Na 0.1 mg IT, group mean
[8] = Group 8: LPS 0.2 mg + ZEP3Na 0.1 mg IT, individual mice
[9] = Group 9: LPS 0.2 mg + ZEP3Na 0.4 mg IT, group mean
[10] = Group 9: LPS 0.2 mg + ZEP3Na 0.4 mg IT, individual mice
[11] = LPS 0.2 mg + ZEP3Na (IT) 0.1 mg
[12] = LPS 0.2 mg + ZEP3Na (IT) 0.4 mg
[13] = LPS 0.8 mg + ZEP3Na (INH) 0.5 mg
[14] = administered by inhalation following LPS instillation
[15] = administered intratracheally following LPS instillation

Q: What does the source list for `CCCCCCCC(=O)NCCCC[C@H](NC(=O)[C@H](Cc1c[nH]c2ccccc12)NC(=O)[C@H](CC(N)=O)NC(=O)[C@@H]1CCC(=O)N1)C(=O)O` [ZEP3Na, pGlu-Asn-Trp-Lys(Octanoyl)-ONa] ([pGlu]NWK(Octanoyl)-OH)?
A: Macrophages & dendritic cells (%) [1]: 72.219%; Neutrophils (%) [1]: 4.248%; T cells (%) [1]: 1.983%; B cells (%) [2]: 0.310% and 0.225% and 0.162% and 0.154% and 0.106% and 0.100% and 0.160% and 0.223% and 0.144%; Eosinophils (%) [2]: 0.151% and 0.400% and 0.136% and 0.176% and 0.138% and 0.390% and 0.192% and 0.540% and 0.366%; Macrophages & dendritic cells (%) [2]: 72.760% and 67.646% and 73.862% and 72.372% and 77.634% and 73.286% and 72.368% and 67.355% and 72.688%; Neutrophils (%) [2]: 3.325% and 7.965% and 2.600% and 3.496% and 2.405% and 3.740% and 3.111% and 7.438% and 4.152%; T cells (%) [2]: 2.519% and 3.322% and 1.247% and 1.675% and 1.513% and 1.348% and 1.817% and 2.755% and 1.654%; B cells (%) [3]: 0.164%; Eosinophils (%) [3]: 0.833%; Macrophages & dendritic cells (%) [3]: 20.180%; Neutrophils (%) [3]: 59.048%; T cells (%) [3]: 2.194%; B cells (%) [4]: 0.118% and 0.102% and 0.048% and 0.030% and 0.045% and 0.489% and 0.052% and 0.572% and 0.017%; Eosinophils (%) [4]: 0.170% and 0.064% and 1.024% and 0.755% and 0.646% and 3.005% and 0.568% and 0.840% and 0.425%; Macrophages & dendritic cells (%) [4]: 71.986% and 72.475% and 1.316% and 0.956% and 1.424% and 16.916% and 1.107% and 14.732% and 0.713%; Neutrophils (%) [4]: 6.007% and 2.454% and 77.259% and 86.115% and 82.630% and 57.391% and 82.523% and 54.903% and 82.147%; T cells (%) [4]: 0.991% and 1.527% and 0.804% and 0.573% and 0.865% and 5.340% and 0.937% and 8.033% and 0.675%; B cells (%) [5]: 0.054%; Eosinophils (%) [5]: 0.475%; Macrophages & dendritic cells (%) [5]: 12.756%; Neutrophils (%) [5]: 67.517%; T cells (%) [5]: 0.895%; B cells (%) [6]: 0.014% and 0.011% and 0.028% and 0.024% and 0.167% and 0.138% and 0.026% and 0.022%; Eosinophils (%) [6]: 0.303% and 0.448% and 0.323% and 0.298% and 1.427% and 0.195% and 0.530% and 0.280%; Macrophages & dendritic cells (%) [6]: 0.470% and 0.297% and 0.271% and 0.442% and 30.597% and 68.407% and 0.798% and 0.764%; Neutrophils (%) [6]: 77.586% and 88.700% and 84.629% and 80.400% and 39.818% and 3.154% and 84.929% and 80.922%; T cells (%) [6]: 0.383% and 0.495% and 0.512% and 0.577% and 1.800% and 2.098% and 0.609% and 0.685%; B cells (%) [7]: 0.097%; Eosinophils (%) [7]: 0.210%; Macrophages & dendritic cells (%) [7]: 2.327%; Neutrophils (%) [7]: 79.428%; T cells (%) [7]: 1.662%; B cells (%) [8]: 0.040% and 0.064% and 0.259% and 0.230% and 0.080% and 0.054% and 0.069% and 0.053% and 0.045% and 0.075%; Eosinophils (%) [8]: 0.247% and 0.204% and 0.223% and 0.251% and 0.143% and 0.176% and 0.180% and 0.265% and 0.225% and 0.192%; Macrophages & dendritic cells (%) [8]: 2.218% and 1.674% and 5.674% and 2.257% and 0.618% and 1.800% and 1.175% and 5.084% and 1.252% and 1.516%; Neutrophils (%) [8]: 84.112% and 84.283% and 69.683% and 74.854% and 81.436% and 79.270% and 71.074% and 80.725% and 85.962% and 82.883%; T cells (%) [8]: 0.940% and 0.742% and 5.066% and 3.187% and 1.024% and 1.045% and 1.327% and 0.892% and 1.131% and 1.271%; B cells (%) [9]: 0.092%; Eosinophils (%) [9]: 0.270%; Macrophages & dendritic cells (%) [9]: 24.471%; Neutrophils (%) [9]: 55.279%; T cells (%) [9]: 1.175%; B cells (%) [10]: 0.045% and 0.054% and 0.029% and 0.019% and 0.100% and 0.153% and 0.286% and 0.103% and 0.037%; Eosinophils (%) [10]: 0.243% and 0.159% and 0.151% and 0.192% and 0.238% and 0.345% and 0.577% and 0.237% and 0.288%; Macrophages & dendritic cells (%) [10]: 4.399% and 1.327% and 0.529% and 0.437% and 1.661% and 60.592% and 75.765% and 73.903% and 1.626%; Neutrophils (%) [10]: 77.353% and 85.551% and 87.483% and 77.212% and 72.881% and 9.005% and 3.108% and 3.716% and 81.207%; T cells (%) [10]: 1.035% and 0.833% and 0.582% and 0.685% and 1.665% and 2.779% and 0.977% and 1.174% and 0.843%; Eosinophils [11]: −; Macrophages [11]: +; Eosinophils [12]: −; Macrophages [12]: +; B cells [13]: +; Eosinophils [13]: −; Macrophages [13]: +; Neutrophils [13]: −; T cells [13]: −; B cells (LPS 0.8 mg + ZEP3Na (INH) 5 mg): +; Eosinophils (LPS 0.8 mg + ZEP3Na (INH) 5 mg): −; Macrophages (LPS 0.8 mg + ZEP3Na (INH) 5 mg): +; Neutrophils (LPS 0.8 mg + ZEP3Na (INH) 5 mg): −; T cells (LPS 0.8 mg + ZEP3Na (INH) 5 mg): −; levels of T cells, eosinophils, neutrophils [14]: significantly inhibited the expression and reduced the levels; levels of macrophages and B cells [14]: increased the levels; levels of eosinophils [15]: significantly inhibited the expression and reduced the levels; levels of macrophages [15]: increased the levels
